The source of these data is PubChem BioAssay AID330 (DTP/NCI, 2004).

Several values for one entry are separate records, joined by “and”; a condition that tells them apart may be missing. Equal values may be shown once. Inconclusive results and toxic doses are left out.

The test system of the assay is P388 leukemia ip, CD2F1 mice, survival T/C. Put plainly: NCI In Vivo Anticancer Drug Screen. Data for tumor model P388 Leukemia (intraperitoneal) in CD2F1 (CDF1) mice. The following applies: endpoint: median survival time, higher = longer survival. In a few lines: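 Mice carrying the transplanted tumor received test compound or vehicle. Survival was recorded in each group, and the value is the treated-group measurement divided by that of the vehicle-treated control group.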

Where [1] appears, read: dose: 50.0 mg/kg/injection, schedule: Q01DX009 (ip), vehicle: saline with Tween-80.
Setting [2] is: dose: 100.0 mg/kg/injection, schedule: Q01DX009 (ip), vehicle: saline with Tween-80.
Where [3] appears, read: dose: 200.0 mg/kg/injection, schedule: Q01DX009 (ip), vehicle: saline with Tween-80.
Where [4] appears, read: dose: 50.0 mg/kg/injection, schedule: Q01DX009 (ip), vehicle: saline.
The mark [5] stands for this setting: dose: 100.0 mg/kg/injection, schedule: Q01DX009 (ip), vehicle: saline.
Setting [6] is: dose: 200.0 mg/kg/injection, schedule: Q01DX009 (ip), vehicle: saline.
[7] abbreviates: dose: 25.0 mg/kg/injection, schedule: Q01DX009 (ip), vehicle: saline.
Setting [8] is: dose: 50.0 mg/kg/injection, schedule: Q01DX005 (ip), vehicle: saline with Tween-80.
[9] abbreviates: dose: 100.0 mg/kg/injection, schedule: Q01DX005 (ip), vehicle: saline with Tween-80.
The mark [10] stands for this setting: dose: 200.0 mg/kg/injection, schedule: Q01DX005 (ip), vehicle: saline with Tween-80.
The mark [11] stands for this setting: dose: 400.0 mg/kg/injection, schedule: Q01DX009 (ip), vehicle: saline with Tween-80.

On to `COc1ccc(-c2nnc(-c3ccc(Cl)cc3)c(=O)[nH]2)cc1`, for which the T/C by setting is: (dose: 6.25 mg/kg/injection, schedule: Q01DX005 (ip), vehicle: saline with Tween-80) 91 % of control; (dose: 12.5 mg/kg/injection, schedule: Q01DX005 (ip), vehicle: saline with Tween-80) 90 % of control.
For the compound `CC(CC(=O)O)(CC(=O)O)CC(=O)O`, the T/C reads like this: under setting [1], 110 % of control; under setting [2], 101 % of control; under setting [3], 97 % of control.
Take `CCOC(=O)C(=CNCc1ccccc1)C(=O)OCC`: the T/C runs as follows: (dose: 15.0 mg/kg/injection, schedule: Q01DX009 (ip), vehicle: saline with Tween-80) 106 % of control; (dose: 30.0 mg/kg/injection, schedule: Q01DX009 (ip), vehicle: saline with Tween-80) 104 % of control; (dose: 60.0 mg/kg/injection, schedule: Q01DX009 (ip), vehicle: saline with Tween-80) 95 % of control.
In the case of `O=C(/C=C/c1ccc(Cl)c(Cl)c1)/C=C/c1ccc(Cl)c(Cl)c1`, the T/C reads like this: under setting [1], 87 % of control; under setting [2], 100 % of control; under setting [3], 87 % of control.
`OC(CC(O)(C(F)(F)F)C(F)(F)F)CC(O)(C(F)(F)F)C(F)(F)F`: the T/C was 109 % of control (dose: 6.25 mg/kg/injection, schedule: Q04DX003 (ip), vehicle: saline with Tween-80); 109 % of control (dose: 12.5 mg/kg/injection, schedule: Q04DX003 (ip), vehicle: saline with Tween-80); 95 % of control (dose: 25.0 mg/kg/injection, schedule: Q04DX003 (ip), vehicle: saline with Tween-80).
Take `NC1=NC(c2ccc(O)cc2O)c2[nH]cnc2N1` (stereo not drawn): the T/C is, setting by setting: under setting [4], 99 % of control; under setting [5], 100 % of control; under setting [6], 97 % of control.
Consider `Cc1ccccc1N(CC1CO1)CC1CO1` (stereo not drawn), for which the T/C under setting [7] is 119 % of control; the T/C (dose: 100.0 mg/kg/injection, schedule: Q01DX009 (ip), vehicle: acetone) was 156 % of control; the T/C under setting [6] was 165 % of control.
Regarding `FC(F)(F)C1(C(F)(F)F)O[Te]2(OC1(C(F)(F)F)C(F)(F)F)OC(C(F)(F)F)(C(F)(F)F)C(C(F)(F)F)(C(F)(F)F)O2`, the T/C reads like this: (dose: 6.25 mg/kg/injection, schedule: Q01DX005 (ip), vehicle: Klucel (hydroxypropylcellulose) (HPC)) 100 % of control; (dose: 12.5 mg/kg/injection, schedule: Q01DX005 (ip), vehicle: Klucel (hydroxypropylcellulose) (HPC)) 112 % of control.
On to `O=C1CCCCC1C(=O)C(F)(F)F` (stereo not drawn), for which the T/C by setting is: (dose: 50.0 mg/kg/injection, schedule: Q01DX009 (ip), vehicle: saline + Tween-80 + alcohol) 116 % of control; (dose: 100.0 mg/kg/injection, schedule: Q01DX009 (ip), vehicle: saline + Tween-80 + alcohol) 106 % of control.
Turning to `COc1cccc2c1C(=O)c1c(O)c3c(c(O)c1C2=O)C[C@@](O)(C(=O)CO)C[C@@H]3OC1CC([N+](C)(C)C)C(O)C(C)O1` (stereo partly drawn), the T/C reads like this: (dose: 3.89 mg/kg/injection, schedule: Q04DX003 (ip), vehicle: water) 105 % of control; (dose: 6.48 mg/kg/injection, schedule: Q04DX003 (ip), vehicle: water) 109 % of control; (dose: 12.5 mg/kg/injection, schedule: Q01DX001 (ip), vehicle: water) 112 % of control; (dose: 12.5 mg/kg/injection, schedule: Q01DX009 (ip), vehicle: water) 160 % of control and 187 % of control; (dose: 30.0 mg/kg/injection, schedule: Q04DX003 (ip), vehicle: water) 150 % of control.
Turning to `CCCCCN(CCCCC)CC(O)CN1CCCc2ccccc21` (stereo not drawn), the T/C under setting [8] is 102 % of control, the T/C under setting [9] was 111 % of control and the T/C under setting [10] is 112 % of control.
In the case of `O=C(CS(=O)(=O)c1ccccc1)c1ccccc1`, the T/C is, setting by setting: (dose: 100.0 mg/kg/injection, schedule: Q01DX009 (ip), vehicle: Klucel (hydroxypropylcellulose) (HPC)) 101 % of control; (dose: 200.0 mg/kg/injection, schedule: Q01DX009 (ip), vehicle: Klucel (hydroxypropylcellulose) (HPC)) 101 % of control; (dose: 400.0 mg/kg/injection, schedule: Q01DX009 (ip), vehicle: Klucel (hydroxypropylcellulose) (HPC)) 105 % of control.
As for `Cc1cccc(NC(=S)NNc2nnc(-c3ccccc3)c(-c3ccccc3)n2)c1`, the T/C was 90 % of control under setting [8], 99 % of control under setting [9] and 100 % of control under setting [10].
For the compound `Cc1nc2sccn2c1C=O`, the T/C runs as follows: (dose: 12.5 mg/kg/injection, schedule: Q01DX009 (ip), vehicle: Klucel (hydroxypropylcellulose) (HPC)) 109 % of control; (dose: 25.0 mg/kg/injection, schedule: Q01DX009 (ip), vehicle: Klucel (hydroxypropylcellulose) (HPC)) 114 % of control; (dose: 50.0 mg/kg/injection, schedule: Q01DX009 (ip), vehicle: Klucel (hydroxypropylcellulose) (HPC)) 114 % of control; (dose: 100.0 mg/kg/injection, schedule: Q01DX001 (ip), vehicle: Klucel (hydroxypropylcellulose) (HPC)) 97 % of control.
For `CN1COc2ccc3ccccc3c2C1`, the T/C was 101 % of control under setting [7], 98 % of control under setting [4] and 106 % of control under setting [5].
As to `CCCCN(S(=O)(=O)c1ccc(C)cc1)S(=O)(=O)c1ccc(C)cc1`, the T/C is, setting by setting: under setting [2], 120 % of control; under setting [3], 106 % of control; under setting [11], 87 % of control.
As for `O=c1c(Cl)cc(Cl)cn1S(=O)(=O)c1ccc([N+](=O)[O-])cc1`, the T/C was 106 % of control (dose: 25.0 mg/kg/injection, schedule: Q01DX009 (ip), vehicle: saline with Tween-80); 105 % of control under setting [1]; 100 % of control and 104 % of control under setting [2]; 104 % of control and 89 % of control under setting [3]; 89 % of control under setting [11].
On to `NC1CCOC1=O` (stereo not drawn), for which the T/C was 100 % of control (dose: 50.0 mg/kg/injection, schedule: Q01DX005 (ip), vehicle: saline); 103 % of control (dose: 100.0 mg/kg/injection, schedule: Q01DX005 (ip), vehicle: saline); 100 % of control (dose: 200.0 mg/kg/injection, schedule: Q01DX005 (ip), vehicle: saline).
With `O=C(/C(O)=C(\O)C(=O)N(C1CCCCC1)C1CCCCC1)N(C1CCCCC1)C1CCCCC1`, the T/C (dose: 25.0 mg/kg/injection, schedule: Q01DX005 (ip), vehicle: Klucel (hydroxypropylcellulose) (HPC)) was 100 % of control; the T/C (dose: 50.0 mg/kg/injection, schedule: Q01DX005 (ip), vehicle: Klucel (hydroxypropylcellulose) (HPC)) is 96 % of control; the T/C (dose: 100.0 mg/kg/injection, schedule: Q01DX005 (ip), vehicle: Klucel (hydroxypropylcellulose) (HPC)) was 100 % of control; the T/C (dose: 200.0 mg/kg/injection, schedule: Q01DX005 (ip), vehicle: Klucel (hydroxypropylcellulose) (HPC)) is 92 % of control.
On to `C=C(CO)C(=O)OC1CC(=C)C2CC(O)C(=C)C2[C@H]2OC(=O)C(=C)C12` (stereo partly drawn), for which the T/C (dose: 3.75 mg/kg/injection, schedule: Q01DX009 (ip), vehicle: saline) was 92 % of control; the T/C (dose: 7.5 mg/kg/injection, schedule: Q01DX009 (ip), vehicle: saline) was 99 % of control; the T/C (dose: 15.0 mg/kg/injection, schedule: Q01DX009 (ip), vehicle: saline) is 108 % of control.
